Clc1ccc(SSc2ccc(Cl)cc2)cc1
Details | solubility (mole fraction)
in acetone, 302.95 K | 0.102
in acetone, 308.05 K | 0.145
in acetone, 313.25 K | 0.208
in chloroform, 303.15 K | 0.122
in chloroform, 307.95 K | 0.174
in chloroform, 312.55 K | 0.243
in ethanol, 304.35 K | 0.000264
in ethanol, 307.45 K | 0.000783
in ethanol, 312.35 K | 0.00305
in ethanol, 317.35 K | 0.00786
in ethyl acetate, 303.95 K | 0.0201
in ethyl acetate, 307.9 K | 0.038
in ethyl acetate, 312.35 K | 0.0667
in ethyl acetate, 319.05 K | 0.117
in methanol, 303.15 K | 0.00014
in methanol, 307.65 K | 0.00061
in methanol, 314.15 K | 0.00259
in methanol, 318.95 K | 0.00552
in toluene, 303.2 K | 0.0219
in toluene, 307.85 K | 0.0446
in toluene, 314.05 K | 0.0864
in toluene, 317.55 K | 0.114

From BigSolDB 2.1
